Laboratory results published in the NIST ThermoML archive (doi:10.1021/je700260f).
Where “and” joins values, the source holds several entries; their conditions need not be identical. Equal entries are not always repeated.

Details: Liquid, Vibrating tube method

FC(C(F)(F)F)C(F)(F)F [1,1,1,2,3,3,3-heptafluoropropane]
Details	mass density
283.15 K, 34529 kPa	1579 kg/m3
283.15 K, 34530 kPa	1579 kg/m3
283.15 K, 34532 kPa	1579.1 kg/m3
283.15 K, 34533 kPa	1579 kg/m3
283.15 K, 34534 kPa	1579.1 kg/m3
283.15 K, 34535 kPa	1579.2 kg/m3
283.15 K, 34536 kPa	1579 kg/m3
283.15 K, 34538 kPa	1579 kg/m3 and 1579.1 kg/m3
283.15 K, 34540 kPa	1579.1 kg/m3
283.15 K, 34541 kPa	1579.1 kg/m3
283.16 K, 9519 kPa	1496 kg/m3
283.16 K, 9552 kPa	1496.3 kg/m3
283.16 K, 9579 kPa	1496.3 kg/m3
283.16 K, 9612 kPa	1496.4 kg/m3
283.16 K, 21379 kPa	1540.8 kg/m3
293.14 K, 783 kPa	1411.5 kg/m3
293.14 K, 832 kPa	1411.9 kg/m3
293.14 K, 869 kPa	1412.2 kg/m3
293.14 K, 911 kPa	1412.4 kg/m3
293.14 K, 943 kPa	1412.7 kg/m3
293.14 K, 980 kPa	1412.9 kg/m3
293.14 K, 1007 kPa	1413.2 kg/m3
293.14 K, 1048 kPa	1413.5 kg/m3
293.14 K, 1080 kPa	1413.6 kg/m3
293.14 K, 1113 kPa	1414 kg/m3
293.14 K, 1145 kPa	1414.1 kg/m3
293.14 K, 1191 kPa	1414.5 kg/m3
293.14 K, 1219 kPa	1414.6 kg/m3
293.14 K, 1252 kPa	1414.9 kg/m3
293.14 K, 1285 kPa	1415 kg/m3
293.14 K, 1319 kPa	1415.2 kg/m3
293.14 K, 1347 kPa	1415.6 kg/m3
293.14 K, 1380 kPa	1415.7 kg/m3
293.14 K, 1417 kPa	1415.9 kg/m3
293.14 K, 1446 kPa	1416.2 kg/m3
293.14 K, 1484 kPa	1416.4 kg/m3
293.14 K, 1514 kPa	1416.7 kg/m3
293.14 K, 1543 kPa	1417 kg/m3
293.14 K, 1583 kPa	1417.1 kg/m3
293.14 K, 1612 kPa	1417.3 kg/m3
293.14 K, 1754 kPa	1418.3 kg/m3
293.14 K, 1789 kPa	1418.7 kg/m3
293.14 K, 1824 kPa	1418.8 kg/m3
293.14 K, 1901 kPa	1419.3 kg/m3
293.14 K, 1941 kPa	1419.6 kg/m3
293.14 K, 1972 kPa	1419.8 kg/m3
293.14 K, 2001 kPa	1420.1 kg/m3
293.14 K, 2030 kPa	1420.1 kg/m3
293.14 K, 2059 kPa	1420.5 kg/m3
293.14 K, 2084 kPa	1420.5 kg/m3
293.14 K, 2104 kPa	1420.7 kg/m3
293.14 K, 2140 kPa	1421 kg/m3
293.14 K, 2164 kPa	1421 kg/m3
293.14 K, 2197 kPa	1421.3 kg/m3
293.14 K, 2221 kPa	1421.4 kg/m3
293.14 K, 2258 kPa	1421.7 kg/m3
293.14 K, 2291 kPa	1421.9 kg/m3
293.14 K, 2324 kPa	1422.2 kg/m3
293.14 K, 2349 kPa	1422.4 kg/m3
293.14 K, 2377 kPa	1422.7 kg/m3
293.14 K, 2402 kPa	1422.6 kg/m3
293.14 K, 2682 kPa	1424.5 kg/m3
293.14 K, 2707 kPa	1424.7 kg/m3
293.14 K, 2740 kPa	1424.9 kg/m3
293.14 K, 2766 kPa	1425.1 kg/m3
293.14 K, 2804 kPa	1425.4 kg/m3
293.14 K, 2829 kPa	1425.5 kg/m3
293.14 K, 2858 kPa	1425.8 kg/m3
293.14 K, 2883 kPa	1425.8 kg/m3
293.14 K, 2921 kPa	1426.1 kg/m3
293.14 K, 2959 kPa	1426.4 kg/m3
293.14 K, 2988 kPa	1426.7 kg/m3
293.14 K, 3018 kPa	1426.7 kg/m3
293.14 K, 3056 kPa	1426.9 kg/m3
293.14 K, 3082 kPa	1427.2 kg/m3
293.14 K, 3112 kPa	1427.3 kg/m3
293.14 K, 3147 kPa	1427.5 kg/m3
293.14 K, 3177 kPa	1427.8 kg/m3
293.14 K, 3211 kPa	1427.9 kg/m3
293.14 K, 3246 kPa	1428.2 kg/m3
293.14 K, 3290 kPa	1428.4 kg/m3
293.14 K, 3321 kPa	1428.7 kg/m3
293.14 K, 3360 kPa	1428.9 kg/m3
293.14 K, 3395 kPa	1429.1 kg/m3
293.14 K, 3426 kPa	1429.3 kg/m3
293.14 K, 3461 kPa	1429.4 kg/m3
293.14 K, 3502 kPa	1429.8 kg/m3
293.14 K, 3537 kPa	1430 kg/m3
293.14 K, 3573 kPa	1430.1 kg/m3
293.14 K, 3604 kPa	1430.4 kg/m3
293.14 K, 3631 kPa	1430.7 kg/m3
293.14 K, 3668 kPa	1430.7 kg/m3
293.14 K, 3690 kPa	1431.1 kg/m3
293.14 K, 3722 kPa	1431 kg/m3
293.14 K, 3750 kPa	1431.3 kg/m3
293.14 K, 3815 kPa	1431.8 kg/m3
293.14 K, 3876 kPa	1432.1 kg/m3
293.14 K, 4878 kPa	1438.3 kg/m3
293.14 K, 4910 kPa	1438.4 kg/m3
293.14 K, 4933 kPa	1438.5 kg/m3
293.14 K, 4965 kPa	1438.7 kg/m3
293.14 K, 4997 kPa	1438.9 kg/m3
293.14 K, 5029 kPa	1439.2 kg/m3
293.14 K, 7613 kPa	1453.4 kg/m3
293.14 K, 7636 kPa	1453.6 kg/m3
293.14 K, 7664 kPa	1453.8 kg/m3
293.14 K, 7697 kPa	1454 kg/m3
293.14 K, 7725 kPa	1454 kg/m3
293.14 K, 7758 kPa	1454.2 kg/m3
293.14 K, 7801 kPa	1454.4 kg/m3
293.14 K, 7862 kPa	1454.8 kg/m3
293.14 K, 7886 kPa	1454.8 kg/m3
293.14 K, 7919 kPa	1455.1 kg/m3
293.14 K, 7952 kPa	1455.3 kg/m3
293.14 K, 7995 kPa	1455.4 kg/m3
293.14 K, 8024 kPa	1455.6 kg/m3
293.14 K, 8053 kPa	1455.7 kg/m3
293.14 K, 8087 kPa	1455.9 kg/m3
293.14 K, 8111 kPa	1456.1 kg/m3
293.14 K, 8140 kPa	1456.2 kg/m3
293.14 K, 8183 kPa	1456.4 kg/m3
293.14 K, 8211 kPa	1456.6 kg/m3
293.14 K, 8240 kPa	1456.7 kg/m3
293.14 K, 8283 kPa	1456.9 kg/m3
293.14 K, 8312 kPa	1457.1 kg/m3
293.14 K, 8350 kPa	1457.4 kg/m3
293.14 K, 8380 kPa	1457.4 kg/m3
293.14 K, 8410 kPa	1457.7 kg/m3
293.14 K, 8447 kPa	1457.8 kg/m3
293.14 K, 8480 kPa	1457.9 kg/m3
293.14 K, 8509 kPa	1458.1 kg/m3
293.14 K, 8542 kPa	1458.3 kg/m3
293.14 K, 9213 kPa	1461.8 kg/m3
293.14 K, 9292 kPa	1462.1 kg/m3
293.14 K, 9327 kPa	1462.4 kg/m3
293.14 K, 9357 kPa	1462.4 kg/m3
293.14 K, 9402 kPa	1462.7 kg/m3
293.14 K, 9437 kPa	1462.7 kg/m3
293.14 K, 9481 kPa	1463 kg/m3
293.14 K, 9511 kPa	1463.2 kg/m3
293.14 K, 9547 kPa	1463.4 kg/m3
293.14 K, 9584 kPa	1463.5 kg/m3
293.14 K, 9615 kPa	1463.7 kg/m3
293.14 K, 9655 kPa	1464 kg/m3
293.14 K, 9695 kPa	1464.1 kg/m3
293.14 K, 9731 kPa	1464.2 kg/m3
293.14 K, 9771 kPa	1464.6 kg/m3
293.14 K, 9807 kPa	1464.6 kg/m3
293.14 K, 9843 kPa	1464.8 kg/m3
293.14 K, 9879 kPa	1464.9 kg/m3
293.14 K, 9915 kPa	1465.1 kg/m3
293.14 K, 9946 kPa	1465.3 kg/m3
293.14 K, 10356 kPa	1467.4 kg/m3
293.14 K, 10403 kPa	1467.6 kg/m3
293.14 K, 10428 kPa	1467.8 kg/m3
293.14 K, 10474 kPa	1467.9 kg/m3
293.14 K, 10520 kPa	1468.1 kg/m3
293.14 K, 11001 kPa	1470.5 kg/m3
293.14 K, 12780 kPa	1478.5 kg/m3
293.14 K, 12814 kPa	1478.8 kg/m3
293.14 K, 12854 kPa	1478.9 kg/m3
293.14 K, 12939 kPa	1479.2 kg/m3
293.14 K, 13996 kPa	1483.9 kg/m3
293.14 K, 14034 kPa	1484.1 kg/m3
293.14 K, 16570 kPa	1494.7 kg/m3
293.14 K, 16613 kPa	1494.8 kg/m3
293.14 K, 16642 kPa	1494.8 kg/m3
293.14 K, 16676 kPa	1495.1 kg/m3
293.14 K, 16710 kPa	1495.1 kg/m3
293.14 K, 16801 kPa	1495.6 kg/m3
293.14 K, 17585 kPa	1498.6 kg/m3
293.14 K, 17619 kPa	1498.8 kg/m3
293.14 K, 19526 kPa	1506.1 kg/m3
293.14 K, 19555 kPa	1506.3 kg/m3
293.14 K, 19593 kPa	1506.2 kg/m3
293.14 K, 20937 kPa	1511.3 kg/m3
293.14 K, 21424 kPa	1513.1 kg/m3
293.14 K, 21528 kPa	1513.4 kg/m3
293.14 K, 21563 kPa	1513.5 kg/m3
293.14 K, 21593 kPa	1513.7 kg/m3
293.14 K, 21629 kPa	1513.8 kg/m3
293.14 K, 21779 kPa	1514.5 kg/m3
293.14 K, 21810 kPa	1514.5 kg/m3
293.14 K, 21855 kPa	1514.7 kg/m3
293.14 K, 21896 kPa	1514.8 kg/m3
293.14 K, 23767 kPa	1521.3 kg/m3
293.14 K, 32750 kPa	1549.5 kg/m3
293.14 K, 32783 kPa	1549.7 kg/m3
293.14 K, 32817 kPa	1549.7 kg/m3
293.14 K, 32855 kPa	1549.9 kg/m3
293.14 K, 32884 kPa	1549.9 kg/m3
293.14 K, 32926 kPa	1550.1 kg/m3
293.14 K, 32970 kPa	1550.2 kg/m3
293.14 K, 32998 kPa	1550.3 kg/m3
293.14 K, 33036 kPa	1550.4 kg/m3
293.14 K, 33075 kPa	1550.3 kg/m3
293.14 K, 33109 kPa	1550.6 kg/m3
293.14 K, 33143 kPa	1550.6 kg/m3
293.14 K, 33182 kPa	1550.8 kg/m3
293.14 K, 33215 kPa	1550.9 kg/m3
293.14 K, 33255 kPa	1550.8 kg/m3
293.14 K, 33293 kPa	1551.1 kg/m3
293.14 K, 33323 kPa	1551.1 kg/m3
293.14 K, 33367 kPa	1551.3 kg/m3
293.14 K, 33406 kPa	1551.4 kg/m3
